The term melting point denotes the temperature of the solid-liquid transition. As for `COc1cc(OC)nc(Oc2cccc(Cl)c2C(=O)Oc2ccc([N+](=O)[O-])cc2)n1`, the melting point lay in the range of 130 to 132 °C. As to `COc1ccc2c(c1O)COCc1cc(OC)c(OC)c(OC)c1-2`, the melting point was in the range of 145 to 147 °C. As for `O=C(Nc1ccc(C(F)(F)F)cc1)c1ccccc1SSc1ccccc1C(=O)Nc1ccc(C(F)(F)F)cc1`, the figure is 272 to 275 °C; as for `CC1(C)CCC(C)(C)c2cc(C(C(N)=O)C(=O)OCc3ccccc3)ccc21` (stereo not drawn), 112 to 113 °C; as for `CC(=O)OC1CSC(Oc2cncc(-c3ccncc3C)c2)C(OC(C)=O)C1OC(C)=O` (stereo not drawn), 153 to 174 °C. As for `Cc1ccc(Cl)cc1N1CN(C(C)C)CN(C)C1=S`, the figure is 83 to 85 °C. `C[C@@H]1O[C@@]1(Cn1ccnc1)c1ccc(F)cc1F`: the melting point was 73 to 76 °C. `O=C1c2ccccc2C(=O)N1CCCOc1cccc(CO)c1` had a melting point of 78 to 80 °C. The same measure for `CNC(=S)NCCCSc1ncco1`: 43 to 45 °C. As for `CCOC(=O)c1cc(-c2ccc(Cl)c(Cl)c2)nn1C`, the figure is 122 to 124 °C. The same measure for `O=C(CCCCCNC(=O)C(c1ccccc1)c1ccccc1)NO`: 55 to 56 °C; for `COc1cc(-c2nc3ccc(OCCCN(C)C)cc3n2Cc2ccccc2C(F)(F)F)cc(OC)c1OC`: 142 °C; for `CCOC(=O)c1ccc(-c2cc(O)c(SCCc3ccccc3)c(=O)o2)cc1`: 156 to 158 °C. `CCOC(=O)C(CO)NC(=O)C(CC(=O)O)NC(=O)CCNC(=O)c1ccc(C(=N)N)cc1` (stereo not drawn): the melting point lay within 201 to 203 °C. For the compound `CC(C)(C)OC(=O)N1CCCC1COC(=O)N1CCN(c2cc(N3CCCC3)nc(N3CCCC3)n2)CC1` (single isomer, unassigned; (-)), the melting point stood at 147 °C.

Turning to `CC(C)(C)OC(=O)N1CCC(Oc2ccc(Cc3cc4cc(C#N)ccc4o3)cc2)CC1`, the melting point lay within 144 to 146 °C. On to `Cn1nc(-c2ccc(S(C)(=O)=O)cc2Cl)c2c1CCCC2=O`, for which the melting point is 208 °C. As for `Cc1nnsc1C(=O)Nc1ccc(-n2nc(C(F)(F)F)cc2C)cc1`, the figure is 51 to 53 °C.

Compound `CC(=C(C#N)C(=O)c1ccccc1)N(C)C` registered a melting point of 105 to 106 °C. The same measure for `COC(=O)N1C(C(=O)O)CSC1c1ccccc1` (stereo not drawn): 129 to 130 °C; for `CC(C)(C)OC(=O)N1C[C@@H](O)C[C@H]1C(=O)OCc1ccccc1`: 72 to 73 °C; for `COc1ccc(-c2cn([C@H]3CN4CCC3CC4)nn2)cn1`: 155 °C.

`Nc1ccccc1NC(=O)c1ccc(C(=O)Nc2cccc(Nc3nc(-c4cccnc4)cs3)c2)s1` came in with a melting point of 222 °C. The same measure for `CC(C)(C)OC(=O)Nc1ccc(I)cc1N`: 127 to 130 °C; for `CN1C(=O)c2cscc2N(C(=O)Cc2ccccc2)c2ccccc21`: 210 to 212 °C; for `NC(=O)CN1C(=O)Cc2cc(Cl)ccc21`: 226 °C. The same measure for `N#CCc1cccc2cnccc12`: 130 to 131 °C; for `O=c1oc(C(F)(F)F)nc2ccc(I)cc12`: 131 to 132 °C. As for `CCCN(CC)C1(c2ccccc2)c2ccccc2OC1[N+](=O)[O-]` (stereo not drawn), the figure is 99 to 100 °C; as for `CCc1nc2c(N)nc3ccccc3c2n1CCCCS(=O)(=O)NCc1ccc(OC)cc1`, 176 to 177 °C; as for `NCc1c([N+](=O)[O-])ccc(N2CCCC2)c1Cl`, 71 to 73 °C. `CCc1cccc2c(C(N)CO)c[nH]c12` (stereo not drawn) showed a melting point of 84 to 86 °C.

`Cc1ccccc1C(=O)Nc1ccc(C(=O)N2c3ccccc3CNc3ccccc32)cc1` returned a melting point of 68 to 71 °C. The same measure for `CNC(=O)[C@@H]1C[C@@H](OCC2CC2)CN1S(=O)(=O)c1ccc(Cl)c(CBr)c1Cl`: 161 °C; for `CNC(=O)C(Cc1ccc(Br)cc1)NC(=O)Nc1n[nH]c(=S)s1` (stereo not drawn): 238 to 241 °C; for `Cc1cc(SCc2sc(-c3ccc(F)cc3)nc2C)ccc1OCC(=O)O`: 45 to 46 °C. As for `COC(=O)C(CCS(N)(=O)=O)c1ccc([N+](=O)[O-])cc1F` (stereo not drawn), the figure is 99 to 101 °C; as for `COc1ccc(-n2c(=O)[nH]c3c(-c4ccc(C(F)(F)F)cc4F)ncnc32)cc1`, 296 to 297 °C. As for `OC1CSC(Oc2ccc(-c3cccnc3F)nc2)C(O)C1O` (stereo not drawn), the figure is 181 °C. In turn, `O=S(c1ccc(C=Cc2nc(CCl)co2)cc1)C(F)(F)F` (stereo not drawn) showed a melting point of 102 to 104 °C. As for `Nc1ccc(Cl)cc1-c1ncn[nH]1`, the figure is 170 to 175 °C; as for `COc1ccc(COc2ccc(Oc3c(C)cc(/C=C/C(=O)N4CCN(Cc5ccc(/C=C/COc6ccc(C)cc6)cc5)CC4)cc3C)nc2)cc1`, 130 to 132 °C. Take `CCN(CC)CCNC(=O)c1cc(Cl)c(N)cc1OCCO`: the melting point lay in the range of 144 to 146 °C.

For the compound `COc1ccc(N2C=CN(CCC(C)(C)NCC(O)c3ccc(OCc4ccccc4)c(CO)c3)C2)cc1` (stereo not drawn), the melting point is 108 to 111 °C. As for `CCCOc1ccc(CCC(=O)O)cc1-c1nc2c(C)cccc2c(=O)[nH]1`, the figure is 215 to 216 °C; as for `O=CN1CCC(C(=O)O)=Cc2cc(Br)ccc21`, 248 to 250 °C.

Turning to `CCn1c(=O)ccn(-c2ccc(N3CCN(c4ccc(OC)cc4)CC3)cc2)c1=O`, the melting point amounted to 210 °C.

For `CCCCCC(O)CCc1ccc(CCCCCCCC(=O)O)o1` (stereo not drawn), the melting point lay within 43 to 45 °C. The same measure for `O=C1c2ccccc2C(=O)N1CCCCOc1ccc([N+](=O)[O-])cc1`: 112 to 114 °C. As for `O=C1CCOc2cc(OCCn3ccnc3)ccc21`, the figure is 128 to 130 °C.

Regarding `N#Cc1ccc(C=S)c(-c2ccccc2)c1`, the melting point amounted to 88 °C. As for `O=C(CCCCCCCCC(=O)Oc1ccc(C(=O)OCc2ccccc2)cc1)Oc1ccc(C(=O)OCc2ccccc2)cc1`, the figure is 62.5 to 63 °C. As for `Cc1c(C(N)=O)nnn1Cc1ccccc1Cl`, the figure is 181 to 183 °C; as for `CCOc1noc2c1C(=O)CCC2`, 98 to 99 °C.

As for `Cc1nc2c(O[C@@H]3c4ccccc4C[C@H]3O)cc(C(=O)O)cc2n1C` (relative stereo), the melting point came to 306 °C. As for `Cc1ccc2c(c1)c(CCNC(=O)c1ccccc1)c1n2C(=O)CCC1`, the figure is 171 °C.

For the compound `CC(C)(O)P(=O)(c1ccccc1)c1ccccc1`, the melting point lay within 96 to 98 °C. As for `CC(=O)N1C(=O)C2(CC2)c2ccc(N3C(=O)C4=C(CCCC4)C3=O)cc21`, the figure is 237 to 238 °C. As for `CC(=O)N(C[C@H]1CN(c2ccc(N3CCC4(CC3)OCCO4)c(F)c2)C(=O)O1)C(C)=O`, the figure is 200 to 202 °C; as for `NC(=O)N(O)CCNC(=O)c1ccc(Oc2ccccc2)o1`, 160 to 163 °C. For `O=C(Nc1ccc(-n2nc(C(F)(F)F)cc2OC(F)F)cc1)c1ccccc1Cl`, the melting point lay in the range of 122 to 123 °C. The same measure for `CN(C)CCNC(=O)c1cc(Cl)c(N)cc1O`: 163 to 165 °C; for `CCCCCCCCCCCC1=NC(=Cc2[nH]c(-c3ccc[nH]3)cc2OCC)C=C1`: 94 to 96 °C.

Source of the values: a melting point compilation (Tetko et al.; mined from patent text by program, amines drawn as free bases though some values may be those of a salt).
